In paper PMC10291553, “Exploring Structure–Activity Relationships in Photodynamic Therapy Anticancer Agents Based on Ir(III)-COUPY Conjugates” (Journal of Medicinal Chemistry, 2023):
Where two headings read alike, the source gives them in different places.

Legend:
A2780 = assay: Photo- and cytotoxic activity determination (MTT), A2780 cells; format: cell-based; conditions: normoxia; for A2780 PI (phototherapeutic index), IC50 dark/IC50 irradiated: dark tested up to 100 μM
Text: (§1) Having shown that the Ir(III)-COUPY conjugates can sensitize both type I and II ROS through spectroscopic techniques and readily internalize into living cells, their photocytotoxicity was screened in various cancer cell lines. This screening included two representative melanoma cell lines (human A375 and […] human SK-MEL-28) and cancer cells with resistance to the clinical drug cisplatin. For the latter, both sensitive and cisplatin-resistant ovarian cancer cells (A2780 and A2780cis) as well as HeLa cells, which also show a degree of chemoresistance to the platinum anticancer drug in vitro,[54] were used. For the determination of dark and light cytotoxicity, dose–response curves were assayed from both conditions to provide the correspondent IC50 values, which correspond to the concentration needed for inhibition of cell growth by 50%. Phototherapeutic index (PI) was calculated as the ratio of dark to light IC50 value for each compound.
(§2) A375, HeLa, and SK-MEL-28 cells were cultured in Dulbecco’s modified Eagle medium (DMEM) supplemented with 10% FBS, L-glutamine, and 1% penicillin–streptomycin. A2780 and A2780cis cells were grown in RPMI-1640 cell medium supplemented with 10% fetal bovine serum (FBS) and 2 mM L-glutamine. Acquired resistance to cisplatin in the A2780cis cell line was maintained by adding cisplatin 1 μM to culture medium every second passage. Cells were cultured in a humidified incubator at 310 K with 5% CO2 atmosphere and subcultured two or three times a week with appropriate densities and were confirmed to be mycoplasma-free using a standard Hoechst DNA staining method.
(§3) A2780, A2780cis, HeLa, A375, and SK-MEL-28 cells were maintained at logarithmic growth-phase and cultured in 96-well plates at a density of 5000 cells/well in complete medium for 24 h at 310 K, 5% CO2 in a humidified incubator. For hypoxia experiments, a hypoxia condition was set up by Tissue Culture Service at University of Murcia using nitrogen (N2) to displace O2 down to a minimum of 2% in a Forma Steri-Cycle i160 incubator (Thermo Fisher Scientific). Serial dilutions of the compounds were added at the final concentrations in the range of 0–100 μM in a final volume of 100 μL per well. A light-based treatment schedule was performed as follows: 1 h incubation with the compounds in the dark, followed by 1 h incubation under irradiation conditions by placing the Photoreactor EXPO-LED from Luzchem (Canada) fitted with green lamps (final light intensity applied of 1.5 mW/cm^2 at λmax = 520 nm) inside the CO2 incubator. All the cell culture plates subjected to light irradiation included untreated controls to verify that cell viability was not affected by light. Then, treatment-containing media was removed, and fresh media was added for a 48 h cell recovery period; the temperature throughout the experiment remained at 310 K. Dark control samples were placed in the same dark conditions and then kept incubated for 1 h in the dark in the humidified CO2 incubator. Medium was then aspirated by suction, cells were loaded with 50 μL of MTT solution (1 mg/mL) for additional 4 h and then removed, and 50 μL of DMSO was added to solubilize the purple formazan crystals formed in active cells. The absorbance was measured at 570 nm using a microplate reader (FLUOstar Omega), and the IC50 values were calculated based on the inhibitory rate curves using the following equation [drawing 4] 4 where I represents the percentage inhibition of viability observed, Imax is the maximal inhibitory effect, IC50 is the concentration that inhibits 50% of maximal growth, C is the concentration of the treatment, and n is the slope of the semi-logarithmic dose–response sigmoidal curves. The non-linear fitting was performed using SigmaPlot 14.0 software. All experiments were performed in three independent studies with n = 3 replicates per concentration level. For a detailed phototoxicity procedure, ref ([43]) includes technical explanations.

A2780cis cells = assay: Photo- and cytotoxic activity determination (MTT), A2780cis cells, normoxia or hypoxia; format: cell-based; conditions: for Hypoxia PI (phototherapeutic index) / Normoxia PI (phototherapeutic index): dark tested up to 250 μM; for A2780cis PI (phototherapeutic index), IC50 dark/IC50 irradiated: dark tested up to 100 μM
Text: as §1, §2
as §3, with “Serial dilutions of the compounds were added at the final concentrations in the range of 0–100 μM in a final volume of 100 μL per well.” left out

A375 = assay: Photo- and cytotoxic activity determination (MTT), A375 cells; format: cell-based, human; conditions: normoxia; for IC50: 48 h drug-free medium; for A375 PI (phototherapeutic index), IC50 dark/IC50 irradiated: 520 nm, dark tested up to 100 μM
Text: as §1, §2, §3

HeLa = assay: Photo- and cytotoxic activity determination (MTT), HeLa cells; format: cell-based; conditions: normoxia; for HeLa PI (phototherapeutic index), IC50 dark/IC50 irradiated: dark tested up to 100 μM
Text: as §1, §2, §3

[1] = Homo sapiens, A2780, 1 h incubation + 1 h green light 520 nm, 1.5 mW cm^–2, 48 h drug-free medium, read-out: A2780 light IC50
[2] = Homo sapiens, A2780, kept in the dark, 2 h treatment, 48 h drug-free medium, read-out: A2780 dark IC50
[3] = 250 μM, A2780cis, 2 h incubation in the dark, 48 h drug-free recovery, hypoxia, read-out: Partial inhibition (% of cell growth inhibition with respect to untreated controls), Hypoxia
[4] = 250 μM, A2780cis, 2 h incubation in the dark, 48 h drug-free recovery, normoxia, read-out: Partial inhibition (% of cell growth inhibition with respect to untreated controls), Normoxia
[5] = A2780cis, hypoxia 2% O2, 520 nm
[6] = A2780cis, hypoxia 2% O2, dark, tested up to 250 μM, read-out: Hypoxia Dark IC50
[7] = A2780cis, hypoxia, 520 nm, read-out: A2780cis Light 520 nm IC50 (microM) Hypoxia
[8] = A2780cis, hypoxia, dark, read-out: A2780cis Dark IC50 (microM) Hypoxia
[9] = A2780cis, normoxia 21% O2, 520 nm
[10] = A2780cis, normoxia 21% O2, dark, tested up to 250 μM, read-out: Normoxia Dark IC50
[11] = A2780cis, normoxia, 1 h incubation + 1 h green light 520 nm, 1.5 mW cm^–2, 48 h drug-free medium, read-out: A2780cis light IC50
[12] = A2780cis, normoxia, dark, up to 250 microM, read-out: A2780cis Dark IC50 (microM) Normoxia
[13] = A2780cis, normoxia, kept in the dark, tested up to 100 μM, 2 h treatment, 48 h drug-free medium, read-out: A2780cis dark IC50
[14] = Homo sapiens, A-375, 1 h incubation + 1 h green light 520 nm, 1.5 mW cm^–2, read-out: A375 light IC50
[15] = Homo sapiens, A-375, kept in the dark, 2 h treatment, read-out: A375 dark IC50
[16] = Homo sapiens, HeLa, 1 h incubation + 1 h green light 520 nm, 1.5 mW cm^–2, 48 h drug-free medium, read-out: HeLa light IC50
[17] = Homo sapiens, HeLa, kept in the dark, 2 h treatment, 48 h drug-free medium, read-out: HeLa dark IC50

Structure (SMILES) | IC50 (A2780; [1]) [µM] | IC50 (A2780; [2]) [µM] | A2780 PI (phototherapeutic index), IC50 dark/IC50 irradiated (A2780; 520 nm) | inhibition at 250 µM (A2780cis cells; [3]) [%] | inhibition at 250 µM (A2780cis cells; [4]) [%] | Hypoxia PI (phototherapeutic index) (A2780cis cells; [5]) | IC50 (A2780cis cells; [6]) [µM] | IC50 (A2780cis cells; [7]) [µM] | IC50 (A2780cis cells; [8]) [µM] | Normoxia PI (phototherapeutic index) (A2780cis cells; [9]) | IC50 (A2780cis cells; [10]) [µM] | IC50 (A2780cis cells; [11]) [µM] | IC50 (A2780cis cells; [12]) [µM] | A2780cis PI (phototherapeutic index), IC50 dark/IC50 irradiated (A2780cis cells; normoxia, 520 nm) | IC50 (A375; [14]) [µM] | IC50 (A375; [15]) [µM] | A375 PI (phototherapeutic index), IC50 dark/IC50 irradiated (A375) | IC50 (HeLa; [16]) [µM] | IC50 (HeLa; [17]) [µM] | HeLa PI (phototherapeutic index), IC50 dark/IC50 irradiated (HeLa; 520 nm) | further results
CCN(CC)c1ccc2c(c1)O/C(=C(/C#N)c1cc[n+](C)cc1)C=C2C [1a] | 5.2 ± 0.5 | > 100 | > 19 | 2.1 ± 0.4 | 3.5 ± 0.9 | > 100.0 | > 250 | 2.5 ± 0.2 | > 250 | > 119.1 | > 250 | 2.1 ± 0.2 | > 250 | > 48 | 1.1 ± 0.1 | > 100 | > 89 | 5.8 ± 0.4 | > 100 | > 17 | IC50 (A2780cis cells; [13]): > 100 µM
CC1=C/C(=C(\C#N)c2cc[n+](C)cc2)Oc2ccccc21 [1b] | > 100 | > 100 |  | 4.5 ± 0.6 | 24 ± 3 |  | > 250 | > 250 | > 250 |  | > 250 |  | > 250 |  | 10 ± 2 | > 100 | > 10 | > 100 | > 100 |  | IC50 (A2780; Homo sapiens, A2780, 520 nm, read-out: A2780 Light 520 nm IC50 (microM) Normoxia): > 100 µM; IC50 (A2780; Homo sapiens, A2780, dark, read-out: A2780 Dark IC50 (microM) Normoxia): > 100 µM; IC50 (A2780cis cells; A2780cis, hypoxia 2% O2, 1 h incubation + 1 h green light 520 nm, 48 h drug-free, read-out: Hypoxia 520 nm IC50): > 250 µM; IC50 (A2780cis cells; A2780cis, normoxia 21% O2, 1 h incubation + 1 h green light 520 nm, 48 h drug-free, read-out: Normoxia 520 nm IC50): > 250 µM; IC50 (A2780cis cells; A2780cis, normoxia, 520 nm, read-out: A2780cis Light 520 nm IC50 (microM) Normoxia): > 250 µM; IC50 (HeLa; Homo sapiens, HeLa, 520 nm, read-out: HeLa Light 520 nm IC50 (microM) Normoxia): > 100 µM; IC50 (HeLa; Homo sapiens, HeLa, dark, read-out: HeLa Dark IC50 (microM) Normoxia): > 100 µM
CC1=C/C(=C(\C#N)c2cc[n+](C)cc2)Oc2c1cc1c3c2CCCN3CCC1 [1c] | 0.09 ± 0.01 | 5.1 ± 0.9 | 57 | 100 | 100 | 36.4 |  | 0.6 ± 0.1 | 20 ± 2 | 100.0 |  | 0.15 ± 0.04 |  | 100 | 0.31 ± 0.02 | 9.9 ± 0.5 | 32 | 1.1 ± 0.8 | 26 ± 4 | 24 | IC50 (A2780cis cells; [13]): 15 ± 2 µM
CCCCn1c2[n+](c3cc(C(=O)OC)ccc31)[Ir-3]13([c]4ccccc4-c4[nH]c5ccccc5[n+]41)([c]1ccccc1-c1[nH]c4ccccc4[n+]13)[n+]1c-2ccc2ccccc21 [2a] |  |  | > 25 |  |  | > 22.7 | > 250 |  |  | > 71.4 | > 250 |  |  | > 29 |  |  | > 48 |  |  | > 1.3 | IC50 (A2780; 1 h incubation + 1 h green light 520 nm, 1.5 mW cm^–2, 48 h drug-free medium, read-out: A2780 light IC50): 4 ± 1 µM; IC50 (A2780; kept in the dark, 2 h treatment, 48 h drug-free medium, read-out: A2780 dark IC50): > 100 µM; Partial inhibition (% of cell growth inhibition with respect to untreated controls), Hypoxia (A2780cis cells; 250 μM, A2780cis, 2 h incubation in the dark, 48 h drug-free recovery, hypoxia): 56 ± 6%; Partial inhibition (% of cell growth inhibition with respect to untreated controls), Normoxia (A2780cis cells; 250 μM, A2780cis, 2 h incubation in the dark, 48 h drug-free recovery, normoxia): 62 ± 4%; IC50 (A2780cis cells; hypoxia, 520 nm, read-out: A2780cis Light 520 nm IC50 (microM) Hypoxia): 11 ± 2 µM; IC50 (A2780cis cells; hypoxia, dark, read-out: A2780cis Dark IC50 (microM) Hypoxia): > 250 µM; IC50 (A2780cis cells; normoxia, 1 h incubation + 1 h green light 520 nm, 1.5 mW cm^–2, 48 h drug-free medium, read-out: A2780cis light IC50): 3.5 ± 0.4 µM; IC50 (A2780cis cells; normoxia, dark, up to 250 microM, read-out: A2780cis Dark IC50 (microM) Normoxia): > 250 µM; IC50 (A2780cis cells; normoxia, kept in the dark, tested up to 100 μM, 2 h treatment, 48 h drug-free medium, read-out: A2780cis dark IC50): > 100 µM; IC50 (A375; 1 h incubation + 1 h green light 520 nm, 1.5 mW cm^–2, read-out: A375 light IC50): 2.1 ± 0.3 µM; IC50 (A375; kept in the dark, 2 h treatment, read-out: A375 dark IC50): > 100 µM; IC50 (HeLa; 1 h incubation + 1 h green light 520 nm, 1.5 mW cm^–2, 48 h drug-free medium, read-out: HeLa light IC50): 75 ± 6 µM; IC50 (HeLa; kept in the dark, 2 h treatment, 48 h drug-free medium, read-out: HeLa dark IC50): > 100 µM
